# Peptide text beside a SMILES is read from it.
# Legend:
# [1] = Generation of dipeptide methyl esters from amino acid methyl esters by MP or PMN (TLC); assay type: in vitro ADME, human; settings: equal concentrations of Leu-OMe, Val-OMe or Phe-OMe added
# Procedure: MP or PMN (prepared as in Example 1) at a concentration of 25×10^6 per ml were suspended in PBS and incubated with 25 mM Leu-OMe for 20 minutes at 22~C. Cell suspensions were then centrifuged at 1000 g for 10 minutes and the supernatants harvested and freeze-dried at -70~C., 100 millitorr atmospheric pressure. In some experiments, Leu-OMe-treated MP or PMN were sonicated to increase the yield of the reaction product. Samples were then extracted with methanol for application to thin layer chromatography (TLC) plates ([…]×20 cm^2, Analtech, Newark, Del.). Following development with chloroform/methanol/acetic acid (19 1:12.5 by volume), 1 cm bands were eluted with methanol, dried under nitrogen, and resuspended in 1 ml PBS. Mass spectra were obtained with a Finnegan Model 4021 automated EI/CI, GC/MS system coupled to an Incos data system. […]
# In order to determine whether MP or PMN could generate the relevant dipeptide methyl esters from these amino acid methyl esters, TLC analysis of the supernatants of MP and PMN incubated with these compounds was carried out. […] However, when equal concentrations of Leu-OMe, Val-OMe, or Phe-OMe were added to MP or PMN, the concentrations of Val-Val-OMe generated were 50 to 80% of those found for Leu-Leu-OMe, while Phe-Phe-OMe was detected at only 10-30% of the levels of Leu-Leu-OMe. […]
# [2] = tested on: natural killer cells (NK); assay: NK function: lysis of K562 target cells (51Cr release) after preincubation of lymphocytes with compound; settings: lymphocytes exposed 15 minutes at room temperature (FIG. 4, FIG. 5)
structure (smiles),measurement,setting,value
COC(=O)[C@H](Cc1ccccc1)NC(=O)[C@@H](N)Cc1ccccc1 [Phe-Phe-OMe] (H-Phe-Phe-OMe),"concentration generated by MP or PMN, relative to Leu-Leu-OMe",[1],10-30%
same,"NK toxicity / effect on NK function, in words",[2],less NK toxic than either Leu-Phe-OMe or Phe-Leu-OMe

# Reference: patent US5304474A, “Hydrophobic peptide esters and amides” (Board of Regents, The University of Texas System, priority 1991, dated 1994)
